Assay results taken from patent US20240132461A1, “FLAVONE DEAZA SPERMIDINE ANALOGUES AND THEIR USE TREATING CANCER” (FLORATEK PHARMA S.A., priority 2021, published 2024).

What was measured:
U-87MG = assay: Cell viability assay, brain carcinoma cell line U-87MG; assay type: cell-based; settings: Homo sapiens; U-87MG brain carcinoma cell line, 72 h, absolute IC50
Protocol: (§1) Antitumor activity of the compounds and doxorubicin as a positive control was assessed by using the CellTiter-Blue Cell Viability Assay (Promega, #G8082) or CellTiter-Glow® Luminescent Cell Viability assay (Promega # G7572) according to the manufacturer's instructions. The compounds were tested at 5 or 6 concentrations in half-log increments (highest concentration 30 μM-100 μM) in duplicate or triplicate well conditions.
(§2) Tumor cells were grown at 37° C. in a humidified atmosphere with 5% CO2 in RPMI 1640 or DMEM medium, supplemented with 10% (v/v) fetal calf serum and 50 μg/ml gentamicin for up to 20 passages, and were passaged once or twice weekly. Cells were harvested using TrypLE or PBS buffer containing 1 mM EDTA, and the percentage of viable cells is determined using a CASY Model TT cell counter (OMNI Life Science). Cells were harvested from exponential phase cultures, counted and plated in 96 well flat-bottom microtiter plates at a cell density depending on the cell line's growth rate (4,000-20,000 cells/well depending on the cell line's growth rate, up to 60,000 for hematological cancer cell lines) in RPMI 1640 or DMEM medium supplemented with 10% (v/v) fetal calf serum and 50 μg/ml gentamicin (140 μl/well). Cultures were incubated at 37° C. and 5% CO2 in a humidified atmosphere. After 24 h, 10 μl of test compounds or control medium are added, and left on the cells for another 72 h. Compounds were serially diluted in DMSO, transferred in cell culture medium, and added to the assay plates. The DMSO concentration was kept constant at <0.3% v/v across the assay plate. Viability of cells was quantified by the CellTiter-Blue® cell viability assay (Promega G8081) or CellTiter-Glow® Luminescent Cell Viability assay (Promega # G7572). Fluorescence (FU) was measured by using the EnSpire® multimode plate reader (Perkin Elmer) (excitation λ=570 nm, emission λ=600 nm) or luminescent detection of ATP in viable cells was used as parameter for proliferation. Luminescence was measured with the microplate luminometer (Promega or Perkin Elmer).
(§3) Sigmoidal concentration-response curves were fitted to the data points (test-versus-control, T/C values) obtained for each tumor model using 4 parameter non-linear curve fit (Charles River DRS Datawarehouse Software) or with GraphPad prism 5.02 software. IC50 values are reported as absolute IC50 values, being the concentration of test compound at the intersection of the concentration-response curves with T/C=50%

SH-SY-5Y = assay: Cell viability assay, brain carcinoma cell line SH-SY-5Y; assay type: cell-based; settings: Homo sapiens, SH-SY5Y; SH-SY-5Y brain carcinoma cell line, 72 h, absolute IC50
Protocol: as §1
as §2, with “Elmer). […]” for “Elmer).”

U-251 = assay: Cell viability assay, brain carcinoma cell line U-251; assay type: cell-based; settings: Homo sapiens; U-251 brain carcinoma cell line, 72 h, absolute IC50
Protocol: as §1, §2, §3

MDA-MB-468 = assay: Cell viability assay, breast carcinoma cell line MDA-MB-468; assay type: cell-based; settings: Homo sapiens; MDA-MB-468 breast carcinoma cell line
Protocol: as §1
as §2, with “Elmer). […]” for “Elmer).”

CALU-6 = assay: Cell viability assay, non-small cell lung carcinoma cell line CALU-6; assay type: cell-based; settings: Homo sapiens; CALU-6 non-small cell lung carcinoma cell line
Protocol: as §1, §2, §3

A375 = assay: Cell viability assay, melanoma cell line A375; assay type: cell-based; settings: Homo sapiens, A-375
Protocol: as §1, §2, §3

brain cancer cell = assay: Cell viability assay, brain cancer cell lines (summary); assay type: cell-based; settings: summary of Tables 3A-D; read-out: IC50s, brain cancer cell growth
Protocol: as §1, §2, §3

breast cancer cell = assay: Cell viability assay, breast cancer cell lines (summary); assay type: cell-based; settings: summary of Tables 4A and 4B; read-out: IC50s, breast cancer cell growth
Protocol: as §1, §2, §3

lung carcinoma cell = assay: Cell viability assay, lung carcinoma cell lines (summary); assay type: cell-based; settings: summary of Tables 7A-E; read-out: IC50s, lung carcinoma cell growth
Protocol: as §1, §2, §3

melanoma cell lines = assay: Cell viability assay, melanoma cell lines (summary); assay type: cell-based; settings: summary of Tables 14A and 14B; read-out: IC50s, melanoma cell lines growth
Protocol: as §1, §2, §3

HCT-116 = assay: Cell viability assay, colon cancer cell line HCT-116; assay type: cell-based
Protocol: as §1
Tumor cells were grown at 37° C. in a humidified atmosphere with 5% CO2 in RPMI 1640 or DMEM medium, supplemented with 10% (v/v) fetal calf serum and 50 μg/ml gentamicin for up to 20 passages, and were passaged once or twice weekly. Cells were harvested using TrypLE or PBS buffer containing 1 mM EDTA, and the percentage of viable cells is determined using a CASY Model TT cell counter (OMNI Life Science). Cells were harvested from exponential phase cultures, counted and plated in 96 well flat-bottom microtiter plates at a cell density depending on the cell line's growth rate (4,000-20,000 cells/well depending on the cell line's growth rate, up to 60,000 for hematological cancer cell lines) in RPMI 1640 or DMEM medium supplemented with 10% (v/v) fetal calf serum and 50 μg/ml gentamicin (140 μl/well). […] Viability of cells was quantified by the CellTiter-Blue® cell viability assay (Promega G8081) or CellTiter-Glow® Luminescent Cell Viability assay (Promega # G7572). […]

NCI-H1299 = assay: Cell viability assay, non-small cell lung carcinoma cell line NCI-H1299; assay type: cell-based; settings: Homo sapiens
Protocol: as §1, §2, §3

LN-229 = assay: Cell viability assay, brain carcinoma cell line LN-229; assay type: cell-based; settings: Homo sapiens; LN-229 brain carcinoma cell line, 72 h, absolute IC50
Protocol: as §1, §2, §3

NCI-H1437 = assay: Cell viability assay, non-small lung carcinoma cell line NCI-H1437; assay type: cell-based; settings: Homo sapiens
Protocol: as §1, §2, §3

HL-60 = assay: Cell viability assay, acute promyelocytic leukemia cell line HL-60; assay type: cell-based; settings: Homo sapiens; HL-60 acute promyelocytic leukemia cell line
Protocol: as §1, §2, §3

Panc-1 = assay: Cell viability assay, pancreatic carcinoma cell line Panc-1; assay type: cell-based; settings: Homo sapiens; Panc-1 pancreatic carcinoma cell line
Protocol: as §1, §2, §3

MIA-Pa-Ca-2 = assay: Cell viability assay, pancreatic carcinoma cell line MIA-Pa-Ca-2; assay type: cell-based; settings: Homo sapiens, MIA PaCa-2; MIA-Pa-Ca-2 pancreatic carcinoma cell line
Protocol: as §1, §2, §3

[1] = In vivo maximum tolerated dose in NOG mice
Protocol: In order to evaluate the general toxicity of selected SND compounds in an animal model, a maximum tolerated dose (MTD) in NOG mice has been undertaken. Three mice per group were treated daily or every other day over 8 days at various doses between 5 mg/kg and 10 mg/kg. Administration of the compounds was i.p. A stock solution of the compounds (40 mg/ml in DMSO) was prepared and frozen at −20° C. in aliquots for each treatment. […] Body weights were measured before each treatment. Mice were further observed for 1 week after the last treatment.

[2] = system: pancreatic carcinoma cell; assay: Cell viability assay, pancreatic carcinoma cell lines (summary); assay type: cell-based; settings: summary of Table 12; read-out: IC50s, pancreatic carcinoma cell growth
Protocol: as §1, §2, §3

DMS114 = assay: Cell viability assay, small cell lung carcinoma cell line DMS114; assay type: cell-based; settings: Homo sapiens, DMS-114
Protocol: as §1
as §2, with “Elmer). […]” for “Elmer).”

NCI-H292 = assay: Cell viability assay, mucoepidermoid pulmonary and adenocarcinoma, NCI-H292; assay type: cell-based; settings: Homo sapiens
Protocol: as §1
as §2, with “Elmer). […]” for “Elmer).”

NCI-H441 = assay: Cell viability assay, mucoepidermoid pulmonary and adenocarcinoma, NCI-H441; assay type: cell-based; settings: Homo sapiens
Protocol: as §1
as §2, with “Elmer). […]” for “Elmer).”

MeWo = assay: Cell viability assay, melanoma cell line MeWo; assay type: cell-based; settings: Homo sapiens
Protocol: as §1
as §2, with “Elmer). […]” for “Elmer).”

SMILES: CN(CCCCc1ccc(-c2cc(=O)c3ccc4c(c3o2)OCO4)cc1)C12CC3CC(CC(C3)C1)C2 [SND393]
- IC50 (U-87MG): 7.1 µM
- IC50 (SH-SY-5Y): 4.7 µM
- IC50 (U-251): 6.8 µM
- IC50 (MDA-MB-468): 3.2 µM
- IC50 (CALU-6): 7 µM
- IC50 (A375): 2.7 µM
- IC50 (brain cancer cell): < 10 µM
- IC50 (breast cancer cell): < 10 µM
- IC50 (lung carcinoma cell): < 20 µM
- IC50 (melanoma cell lines): < 10 µM

SMILES: O=c1cc(-c2ccc(CCCN3CCCCC3)cc2)oc2c(O)c(O)ccc12 [SND172]
- IC50 (HCT-116; HCT-116 colon cancer cell line): 11.4 µM
- IC50 (HCT-116; Homo sapiens, HCT-116, HCT-116 colon cancer cell line): < 20 µM

SMILES: COc1c(O)ccc2c(=O)cc(-c3ccc(CN(C)CCN4CCCCC4)cc3)oc12 [SND167]
- IC50 (NCI-H1299): 2.7 µM
- IC50 (lung carcinoma cell): < 20 µM

SMILES: O=c1cc(-c2ccc(CCCCN3CCCCC3)cc2)oc2c3c(ccc12)OCO3 [SND390]
- IC50 (LN-229): 7 µM
- IC50 (NCI-H1437): 10 µM

SMILES: COc1c(O)ccc2c(=O)cc(-c3ccc(CN4CCCCC4)cc3)oc12 [SND168]
- IC50 (NCI-H1299): 3.7 µM
- IC50 (lung carcinoma cell): < 20 µM

SMILES: COc1c(O)ccc2c(=O)cc(-c3ccc(CCCCN4CCN(C)CC4)cc3)oc12 [SND142, 7-Hydroxy-8-methoxy-2-(4-(4-(4-methylpiperazin-1-yl)butyl)phenyl)-4H-chromen-4-one]
- IC50 (HL-60): 3.48 µM
- IC50 (NCI-H1299): 1 µM
- IC50 (CALU-6): 1.7 µM
- IC50 (Panc-1): 1.6 µM
- IC50 (MIA-Pa-Ca-2): 1 µM
- tolerability at the highest dose administered ([1]; 8-10 mg/kg i.p., daily or every other day over 8 days): well tolerated
- MTD at 8 days ([1]; mouse, in vivo, ip, repeated i.p. administration, MTD not reached, read-out: maximum tolerated dose (MTD), estimated): > 10 mg/kg
- IC50 (lung carcinoma cell): < 20 µM
- IC50 [2]: < 10 µM

SMILES: NCCCNCCCCNCCCCc1ccc(-c2cc(=O)c3ccc4c(c3o2)OCO4)cc1 [SND392]
- IC50 (U-87MG): 7.6 µM
- IC50 (LN-229): 11 µM
- IC50 (SH-SY-5Y): 3.7 µM
- IC50 (U-251): 8.4 µM
- IC50 (HL-60): 5.9 µM
- IC50 (CALU-6): 7 µM
- IC50 (NCI-H1437): 3.1 µM
- IC50 (DMS114): 5.4 µM
- IC50 (NCI-H292): 3.8 µM
- IC50 (NCI-H441): 5.4 µM
- IC50 (MeWo): 9.8 µM
- IC50 (lung carcinoma cell): < 20 µM
- IC50 (melanoma cell lines): < 10 µM
